Read-outs that look alike come from different tables or passages of the source.
Tests used:
Format in all cases: cell-based
any organism tested = assay: Synergy index test, summary statements over the organisms tested; settings: for Synergy of biocide paired with surfactant: against any organism tested; for ratio of surfactant to biocide where synergy was observed: not commercially relevant (less biocide relative to surfactant)
Method: Surfactants and biocides were evaluated for synergy by determining the synergy index (S.I.) of the combination. Synergy index was calculated based on minimum inhibitory concentrations (MIC) of two antimicrobial compounds (A and B) alone and in combinations. The tests organisms were Gram negative bacteria (Pseudomonas aeruginosa ATCC #15442), Gram positive bacteria (Staphylococcus aureus ATCC #6538), yeast (Candida albicans ATCC#10203) and mold (Aspergillus niger ATCC#16404). Contact time for the bacteria was 24 and 48 hours, yeast was 48 and 72 hrs, and 3 and 7 days for mold. The test was carried out in 96 well microtiter plates. R^1O(CH2CH(CH3)O)5(CH2CH2O)9H, Surf. A where R^1 is 2-ethylhexyl R^2O(CH2CH(CH3)O)3(CH2CH2O)5H Surf. D R^2O(CH2CH(CH3)O)3(CH2CH2O)7H Surf. E In Surf. D and Surf. E, R^2 is a mixture of C8-C14 linear alkyl groups (70% C8-C10 linear alkyl and 30% C12-C14 linear alkyl)
SI is calculated as follows: Ca/CA+Cb/CB=Synergy Index (“SI”)
Wherein: • CA=concentration of compound A in ppm, acting alone, which produced an end point (MIC of Compound A). • Ca=concentration of compound A in ppm, in the mixture, which produced an end point. • CB=concentration of compound B in ppm, acting alone, which produced an end point (MIC of Compound B). • Cb=concentration of compound B in ppm, in the mixture, which produced an end point. When the sum of Ca/CA and Cb/CB is greater than one, antagonism is indicated.

[1] = test system: Staphylococcus aureus ATCC #6538; assay: MIC / synergy index test in 96 well microtiter plates, Gram positive bacteria; settings: for CB (MIC of compound B acting alone): S. aureus ATCC# 6538, 24 hrs
Method: (§1) Surfactants and biocides were evaluated for synergy by determining the synergy index (S.I.) of the combination. Synergy index was calculated based on minimum inhibitory concentrations (MIC) of two antimicrobial compounds (A and B) alone and in combinations. The tests organisms were Gram negative bacteria (Pseudomonas aeruginosa ATCC #15442), Gram positive bacteria (Staphylococcus aureus ATCC #6538), yeast (Candida albicans ATCC#10203) and mold (Aspergillus niger ATCC#16404). Contact time for the bacteria was 24 and 48 hours, yeast was 48 and 72 hrs, and 3 and 7 days for mold. The test was carried out in 96 well microtiter plates. […] E In Surf. D and Surf. […] [table] […] SI is calculated as follows: Ca/CA+Cb/CB=Synergy Index (“SI”) Wherein: • CA=concentration of compound A in ppm, acting alone, which produced an end point (MIC of Compound A). • Ca=concentration of compound A in ppm, in the mixture, which produced an end point. • CB=concentration of compound B in ppm, acting alone, which produced an end point (MIC of Compound B). • Cb=concentration of compound B in ppm, in the mixture, which produced an end point. When the sum of Ca/CA and Cb/CB is greater than one, antagonism is indicated.

[2] = test system: Candida albicans ATCC#10203; assay: MIC / synergy index test in 96 well microtiter plates, yeast; settings: for MIC: Candida albicans, ATCC10203, 48 h
Method: as §1

[3] = test system: Aspergillus niger ATCC#16404; assay: MIC / synergy index test in 96 well microtiter plates, mold; settings: A. niger ATCC#16404, 3rd day, Media PDB; for MIC: Aspergillus niger, ATCC16404, read-out: CB (MIC of compound B acting alone), B: Potassium Sorbate
Method: as §1

[4] = test system: Pseudomonas aeruginosa ATCC #15442; assay: MIC / synergy index test in 96 well microtiter plates, Gram negative bacteria
Method: as §1

## CCC12COCN1COC2 [CS-1246]
Any organism tested; paired with Surf. D
  Synergy of biocide paired with surfactant: no synergy

## CCCCCCCCCC[N+](C)(C)CCCCCCCCCC.[Cl-] [DIDAC]
Any organism tested; combination with Surf. A
  ratio of surfactant to biocide where synergy was observed: 1:0.2 or greater
Any organism tested; combination with Surf. D
  ratio of surfactant to biocide where synergy was observed: 1:0.2 or greater

## CC1(C)C(=O)N(CO)C(=O)N1CO [DMDMH]
Any organism tested; paired with Surf. D
  Synergy of biocide paired with surfactant: no synergy
Any organism tested; paired with Surf. E
  Synergy of biocide paired with surfactant: no synergy

## CCCCNC(=O)OCC#CI [IPBC]
Any organism tested; combination with Surf. A
  ratio of surfactant to biocide where synergy was observed: 1:0.2 or greater
Any organism tested; combination with Surf. D
  ratio of surfactant to biocide where synergy was observed: 1:0.05 or worse
Any organism tested; combination with Surf. E
  ratio of surfactant to biocide where synergy was observed: 1:0.2 or greater

## Cn1sc2ccccc2c1=O [MBIT]
Any organism tested; combination with Surf. D
  ratio of surfactant to biocide where synergy was observed: 1:0.05 or worse

## CCCCCCCCn1sccc1=O [OIT]
Any organism tested; combination with Surf. D
  ratio of surfactant to biocide where synergy was observed: 1:0.2 or greater
Any organism tested; combination with Surf. E
  ratio of surfactant to biocide where synergy was observed: 1:0.2 or greater

## Oc1ccccc1-c1ccccc1 [OPP]
Any organism tested; paired with Surf. D
  Synergy of biocide paired with surfactant: no synergy

## C/C=C/C=C/C(=O)[O-].[K+] [Potassium Sorbate]
[1]; B: Potassium Sorbate, Media 1/10TSB, inoculum 1.808E+06 CFU/ml
  CB (MIC of compound B acting alone): 30000 ppm
[1]; Staphylococcus aureus, ATCC6538, 24 h, read-out: CB (MIC of compound B acting alone)
  MIC: 30000 µg/mL
[2]; read-out: CB (MIC of compound B acting alone), B: Potassium Sorbate, C. albicans ATCC#10203, Media PDB, inoculum 1.156E+06 CFU/ml
  MIC: 800 µg/mL
[2]; read-out: CB (MIC of compound B acting alone), B: Potassium Sorbate, C. albicans ATCC#10203, Media PDB, inoculum 1.808E+06 CFU/ml
  MIC: 600 µg/mL
[2]; read-out: CB (MIC of compound B acting alone), B: Potassium Sorbate, C. albicans ATCC#10203, Media PDB, inoculum 5.726E+05 CFU/ml
  MIC: 1200 µg/mL
[3]; inoculum 1.156E+06 (table with Surf. D)
  MIC: 6000 µg/mL
[3]; inoculum 1.156E+06 CFU/ml (table with Surf. A)
  MIC: 1000 µg/mL
[3]; inoculum 1.156E+06 CFU/ml (table with Surf. E)
  MIC: 1000 µg/mL
[4]; Pseudomonas aeruginosa, ATCC15442, 24 h, read-out: CB (MIC of compound B acting alone)
  MIC: 15000 µg/mL

## O=C([O-])c1ccccc1.[Na+] [Sodium Benzoate]
[1]; B: Sodium Benzoate, Media 1/10 TSB, inoculum 1.808E+05
  CB (MIC of compound B acting alone): 30000 ppm
[1]; B: Sodium benzoate, Media 1/10TSB, inoculum 1.808E+06 CFU/ml
  CB (MIC of compound B acting alone): 30000 ppm
[2]; B: Sodium Benzoate, C. albicans ATCC#10203, 48 hrs, Media PDB, inoculum 5.726E+05 CFU/ml
  CB (MIC of compound B acting alone): 1200 ppm
[3]; B: Sodium Benzoate, inoculum 1.156E+06
  CB (MIC of compound B acting alone): 5998 ppm
Any organism tested; paired with Surf. A
  Synergy of biocide paired with surfactant: no synergy
[4]; B: Sodium Benzoate, Ps. aeruginosa ATCC#15442, 48 hrs, Media 1/10TSB, inoculum 5.727E+07 CFU/ml
  CB (MIC of compound B acting alone): 14991 ppm

## O=[N+]([O-])C(CO)(CO)CO [TRIS NITRO]
Any organism tested; paired with Surf. A
  Synergy of biocide paired with surfactant: no synergy

## CCCCCCCCCCCCCC[P+](CCCC)(CCCC)CCCC.[Cl-] [TTPC]
Any organism tested; combination with Surf. E
  ratio of surfactant to biocide where synergy was observed: 1:0.2 or greater

— patent publication US9675064B2, “Microbicidal composition” (Dow Global Technologies LLC, priority 2013, dated 2017)
